Laboratory results published in PMC3848336, “Aurora Isoform Selectivity: Design and Synthesis of Imidazo[4,5-b]pyridine Derivatives as Highly Selective Inhibitors of Aurora-A Kinase in Cells” (Journal of Medicinal Chemistry, 2013).
Read-outs that look alike come from different tables or passages of the source.

Tests used:
Assay in all cases: Kinase selectivity profiling
Type in all cases: biochemical
[1] = target: BTK (Homo sapiens, UniProt Q06187)
From the text: (§1) Compound 28c was profiled against a panel of 110 kinases at the International Centre for Protein Kinase Profiling, Division of Signal Transduction Therapy, University of Dundee. Compound 40f was profiled against a panel of 50 kinases (MRC-PPU Express Screen) also at the International Centre for Protein Kinase Profiling.

[2] = target: CAMKKb (Homo sapiens, UniProt Q96RR4)
From the text: as §1

[3] = target: CHK2 (Homo sapiens, UniProt O96017)
From the text: as §1

[4] = target: CK2 (Homo sapiens, UniProt P68400)
From the text: as §1

[5] = target: DYRK1A (Homo sapiens, UniProt Q13627)
From the text: as §1

[6] = target: EF2K (Homo sapiens, UniProt O00418)
From the text: as §1

[7] = target: HER4 (Homo sapiens, UniProt Q15303)
From the text: as §1

[8] = target: IGF-1R (Homo sapiens, UniProt P08069); settings: read-out: % activity remaining, IGF21R
From the text: as §1

[9] = target: IRAK4 (Homo sapiens, UniProt Q9NWZ3)
From the text: as §1

[10] = target: JAK2 (Homo sapiens, UniProt O60674)
From the text: as §1

[11] = target: JNK1 (Homo sapiens, UniProt P45983)
From the text: as §1

[12] = target: Lck (Homo sapiens, UniProt P06239)
From the text: as §1

[13] = target: MARK3 (Homo sapiens, UniProt P27448)
From the text: as §1

[14] = target: MKK1 (Homo sapiens, UniProt Q02750)
From the text: as §1

[15] = target: MLK3 (Homo sapiens, UniProt Q16584)
From the text: as §1

[16] = target: MSK1 (Homo sapiens, UniProt O75582)
From the text: as §1

[17] = target: NEK6 (Homo sapiens, UniProt Q9HC98)
From the text: as §1

[18] = target: PAK4 (Homo sapiens, UniProt O96013)
From the text: as §1

[19] = target: PDK1 (Homo sapiens, UniProt O15530)
From the text: as §1

[20] = target: PIM1 (Homo sapiens, UniProt P11309)
From the text: as §1

[21] = target: PKA (Homo sapiens, UniProt P17612)
From the text: as §1

[22] = target: PKBa (Homo sapiens, UniProt P31749, S473D)
From the text: as §1

[23] = target: PKCa (Homo sapiens, UniProt P17252)
From the text: as §1

[24] = target: PKD1 (Homo sapiens, UniProt Q15139)
From the text: as §1

[25] = target: PLK1 (Homo sapiens, UniProt P53350)
From the text: as §1

[26] = target: PRK2 (Homo sapiens, UniProt Q16513)
From the text: as §1

[27] = target: RIPK2 (Homo sapiens, UniProt O43353)
From the text: as §1

[28] = target: ROCK 2 (Rattus norvegicus, UniProt Q62868)
From the text: as §1

[29] = target: RSK1 (Homo sapiens, UniProt Q15418)
From the text: as §1

[30] = target: S6K1 (Homo sapiens, UniProt P23443)
From the text: as §1

[31] = target: SGK1 (Homo sapiens, UniProt O00141)
From the text: as §1

[32] = target: SRPK1 (Homo sapiens, UniProt Q96SB4)
From the text: as §1

[33] = target: SYK (Homo sapiens, UniProt P43405)
From the text: as §1

[34] = target: SmMLCK (Homo sapiens, UniProt Q15746)
From the text: as §1

[35] = target: Src (Homo sapiens, UniProt P12931)
From the text: as §1

[36] = target: TAK1 (Homo sapiens, UniProt O43318)
From the text: as §1

[37] = target: TBK1 (Homo sapiens, UniProt Q9UHD2)
From the text: as §1

[38] = target: TTK (Homo sapiens, UniProt P33981)
From the text: as §1

[39] = target: TrkA (Homo sapiens, UniProt P04629)
From the text: as §1

[40] = target: VEGFR (VEGFR1) (Homo sapiens, UniProt P17948); settings: read-out: % activity remaining, VEG2FR
From the text: as §1

[41] = target: p38a MAPK (Homo sapiens, UniProt Q16539)
From the text: as §1

[42] = target: Aurora B (Homo sapiens, UniProt Q96GD4)
[43] = 50-kinase panel (MRC-PPU Express Screen)

Sequence of SGK1 (O00141 whole entry, species assumed): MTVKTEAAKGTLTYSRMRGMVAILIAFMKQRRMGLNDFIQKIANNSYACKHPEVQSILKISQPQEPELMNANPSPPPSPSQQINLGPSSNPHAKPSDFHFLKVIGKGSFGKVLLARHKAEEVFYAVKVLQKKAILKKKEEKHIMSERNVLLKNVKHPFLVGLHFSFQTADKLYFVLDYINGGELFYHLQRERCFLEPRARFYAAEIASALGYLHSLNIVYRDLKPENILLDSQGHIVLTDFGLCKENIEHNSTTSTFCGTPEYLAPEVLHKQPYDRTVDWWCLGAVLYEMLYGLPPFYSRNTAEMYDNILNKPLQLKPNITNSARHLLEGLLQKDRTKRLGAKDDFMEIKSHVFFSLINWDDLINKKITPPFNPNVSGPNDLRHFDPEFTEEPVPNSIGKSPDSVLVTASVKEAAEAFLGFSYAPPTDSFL
Sequence of Src (P12931 whole entry): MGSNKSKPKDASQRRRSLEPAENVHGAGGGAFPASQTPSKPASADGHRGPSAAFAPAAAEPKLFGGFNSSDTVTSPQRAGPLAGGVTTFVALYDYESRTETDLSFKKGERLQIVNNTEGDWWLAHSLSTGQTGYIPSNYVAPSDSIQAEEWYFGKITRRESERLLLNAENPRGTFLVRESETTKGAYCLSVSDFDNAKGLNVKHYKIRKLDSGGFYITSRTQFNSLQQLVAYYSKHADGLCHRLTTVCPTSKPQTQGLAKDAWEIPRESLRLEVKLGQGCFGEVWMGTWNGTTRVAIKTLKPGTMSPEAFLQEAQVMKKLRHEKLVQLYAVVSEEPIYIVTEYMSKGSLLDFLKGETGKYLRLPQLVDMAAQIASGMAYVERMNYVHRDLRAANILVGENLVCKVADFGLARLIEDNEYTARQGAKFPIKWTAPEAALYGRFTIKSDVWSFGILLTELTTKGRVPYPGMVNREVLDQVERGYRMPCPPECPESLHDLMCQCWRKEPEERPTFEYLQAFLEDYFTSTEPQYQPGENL
Sequence of Lck (P06239 whole entry): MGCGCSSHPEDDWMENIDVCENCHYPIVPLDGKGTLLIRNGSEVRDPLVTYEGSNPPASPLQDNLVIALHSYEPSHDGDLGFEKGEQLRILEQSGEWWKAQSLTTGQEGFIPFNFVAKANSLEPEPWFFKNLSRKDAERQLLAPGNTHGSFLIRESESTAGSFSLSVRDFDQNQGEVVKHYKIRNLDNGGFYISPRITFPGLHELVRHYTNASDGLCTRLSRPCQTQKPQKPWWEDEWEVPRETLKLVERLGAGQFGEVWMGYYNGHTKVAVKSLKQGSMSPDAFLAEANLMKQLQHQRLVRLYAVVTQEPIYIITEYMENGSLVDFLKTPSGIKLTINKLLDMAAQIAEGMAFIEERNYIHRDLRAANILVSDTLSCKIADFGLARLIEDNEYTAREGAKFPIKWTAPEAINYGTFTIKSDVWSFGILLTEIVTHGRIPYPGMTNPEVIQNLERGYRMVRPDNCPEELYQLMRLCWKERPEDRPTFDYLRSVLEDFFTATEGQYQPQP
Sequence of PLK1 (P53350 whole entry): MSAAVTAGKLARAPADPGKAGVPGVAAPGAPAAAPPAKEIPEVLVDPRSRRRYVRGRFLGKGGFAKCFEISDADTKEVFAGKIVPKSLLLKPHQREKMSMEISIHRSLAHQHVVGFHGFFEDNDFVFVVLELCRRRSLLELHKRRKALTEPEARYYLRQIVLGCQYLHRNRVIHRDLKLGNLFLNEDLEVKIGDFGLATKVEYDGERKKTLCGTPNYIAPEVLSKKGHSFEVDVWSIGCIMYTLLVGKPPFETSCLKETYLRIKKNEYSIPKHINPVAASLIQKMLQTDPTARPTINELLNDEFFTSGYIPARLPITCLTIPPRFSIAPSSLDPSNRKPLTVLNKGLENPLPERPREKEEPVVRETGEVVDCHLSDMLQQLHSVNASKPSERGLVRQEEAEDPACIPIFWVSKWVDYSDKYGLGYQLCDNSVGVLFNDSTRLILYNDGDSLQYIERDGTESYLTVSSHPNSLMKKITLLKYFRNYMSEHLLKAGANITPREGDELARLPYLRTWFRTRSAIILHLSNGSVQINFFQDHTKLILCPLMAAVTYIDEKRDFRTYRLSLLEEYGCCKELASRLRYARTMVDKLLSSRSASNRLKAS
Sequence of Aurora B (Q96GD4 whole entry): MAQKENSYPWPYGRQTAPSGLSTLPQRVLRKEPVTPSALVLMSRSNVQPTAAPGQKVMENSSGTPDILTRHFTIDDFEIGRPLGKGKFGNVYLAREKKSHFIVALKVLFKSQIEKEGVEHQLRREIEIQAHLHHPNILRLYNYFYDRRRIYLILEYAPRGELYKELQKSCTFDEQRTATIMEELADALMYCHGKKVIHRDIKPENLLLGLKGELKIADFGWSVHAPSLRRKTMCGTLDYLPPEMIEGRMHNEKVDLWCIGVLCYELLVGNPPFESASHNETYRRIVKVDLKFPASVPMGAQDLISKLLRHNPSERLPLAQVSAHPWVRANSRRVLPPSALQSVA
Sequence of VEGFR (VEGFR1) (P17948 27-1338, species assumed): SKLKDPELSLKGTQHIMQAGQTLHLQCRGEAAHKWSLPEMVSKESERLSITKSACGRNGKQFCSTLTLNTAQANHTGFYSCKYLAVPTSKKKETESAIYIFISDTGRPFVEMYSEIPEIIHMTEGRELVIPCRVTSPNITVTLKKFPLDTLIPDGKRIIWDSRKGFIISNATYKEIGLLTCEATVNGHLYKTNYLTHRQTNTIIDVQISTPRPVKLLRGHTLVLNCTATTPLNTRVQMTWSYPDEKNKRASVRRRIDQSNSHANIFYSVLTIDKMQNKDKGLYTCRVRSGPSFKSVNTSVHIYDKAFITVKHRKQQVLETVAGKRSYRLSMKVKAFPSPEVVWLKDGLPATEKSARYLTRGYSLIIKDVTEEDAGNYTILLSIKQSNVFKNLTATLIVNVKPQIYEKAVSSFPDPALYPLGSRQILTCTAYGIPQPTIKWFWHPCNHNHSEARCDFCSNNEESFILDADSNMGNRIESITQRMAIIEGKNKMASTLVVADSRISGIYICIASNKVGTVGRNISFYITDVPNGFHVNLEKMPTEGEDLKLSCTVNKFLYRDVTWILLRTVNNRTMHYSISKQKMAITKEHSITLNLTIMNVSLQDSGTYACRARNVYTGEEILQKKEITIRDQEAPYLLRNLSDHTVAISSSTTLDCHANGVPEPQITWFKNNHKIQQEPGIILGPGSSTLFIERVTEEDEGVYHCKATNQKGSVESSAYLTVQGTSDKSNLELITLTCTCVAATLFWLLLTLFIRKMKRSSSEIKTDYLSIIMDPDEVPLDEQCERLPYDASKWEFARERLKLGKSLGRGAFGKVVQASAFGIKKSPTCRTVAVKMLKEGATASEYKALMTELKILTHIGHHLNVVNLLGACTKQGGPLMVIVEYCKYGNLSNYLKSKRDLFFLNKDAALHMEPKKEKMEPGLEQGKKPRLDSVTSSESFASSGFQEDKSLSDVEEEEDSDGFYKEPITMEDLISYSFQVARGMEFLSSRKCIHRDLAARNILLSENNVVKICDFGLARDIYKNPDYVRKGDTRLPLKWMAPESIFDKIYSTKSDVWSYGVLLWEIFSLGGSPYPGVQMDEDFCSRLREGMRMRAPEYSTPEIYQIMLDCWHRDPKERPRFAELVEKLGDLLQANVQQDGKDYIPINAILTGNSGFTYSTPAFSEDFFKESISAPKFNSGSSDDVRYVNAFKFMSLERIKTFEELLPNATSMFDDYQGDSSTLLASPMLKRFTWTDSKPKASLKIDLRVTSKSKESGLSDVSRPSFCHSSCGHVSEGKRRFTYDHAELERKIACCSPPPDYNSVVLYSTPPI
Sequence of MLK3 (Q16584 whole entry): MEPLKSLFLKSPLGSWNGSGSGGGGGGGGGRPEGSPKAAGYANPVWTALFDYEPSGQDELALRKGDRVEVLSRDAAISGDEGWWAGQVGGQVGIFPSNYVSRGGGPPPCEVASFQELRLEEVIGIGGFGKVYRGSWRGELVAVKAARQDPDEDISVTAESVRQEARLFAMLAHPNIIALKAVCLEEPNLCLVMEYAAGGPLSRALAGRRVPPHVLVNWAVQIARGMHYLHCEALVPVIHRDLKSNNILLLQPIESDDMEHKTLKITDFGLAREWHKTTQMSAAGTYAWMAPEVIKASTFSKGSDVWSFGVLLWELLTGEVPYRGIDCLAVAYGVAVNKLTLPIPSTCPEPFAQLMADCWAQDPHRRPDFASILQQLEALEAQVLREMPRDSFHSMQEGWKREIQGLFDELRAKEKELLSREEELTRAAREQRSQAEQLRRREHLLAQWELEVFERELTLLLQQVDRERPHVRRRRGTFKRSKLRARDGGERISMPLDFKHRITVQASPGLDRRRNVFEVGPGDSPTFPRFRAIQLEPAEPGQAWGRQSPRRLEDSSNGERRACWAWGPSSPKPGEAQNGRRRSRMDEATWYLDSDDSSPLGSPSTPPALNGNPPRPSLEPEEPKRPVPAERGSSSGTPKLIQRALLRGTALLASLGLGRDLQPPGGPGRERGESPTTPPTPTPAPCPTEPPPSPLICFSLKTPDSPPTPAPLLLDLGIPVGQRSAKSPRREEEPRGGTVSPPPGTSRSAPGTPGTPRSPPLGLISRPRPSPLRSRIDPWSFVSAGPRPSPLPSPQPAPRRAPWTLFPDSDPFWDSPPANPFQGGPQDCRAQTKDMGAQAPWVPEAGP
Sequence of IRAK4 (Q9NWZ3 whole entry): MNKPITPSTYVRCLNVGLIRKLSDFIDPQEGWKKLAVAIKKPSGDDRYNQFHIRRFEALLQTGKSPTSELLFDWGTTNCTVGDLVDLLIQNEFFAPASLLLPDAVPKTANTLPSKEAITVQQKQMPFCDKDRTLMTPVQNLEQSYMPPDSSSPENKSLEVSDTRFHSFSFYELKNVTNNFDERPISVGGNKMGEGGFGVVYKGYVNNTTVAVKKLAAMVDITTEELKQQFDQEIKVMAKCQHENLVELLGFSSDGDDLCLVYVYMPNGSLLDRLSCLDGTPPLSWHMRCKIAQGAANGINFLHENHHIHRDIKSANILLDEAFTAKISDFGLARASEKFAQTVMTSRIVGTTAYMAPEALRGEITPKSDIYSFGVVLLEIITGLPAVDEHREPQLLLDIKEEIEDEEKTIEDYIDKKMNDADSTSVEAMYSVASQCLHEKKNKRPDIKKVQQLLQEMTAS

Cc1nn(C)cc1-c1nc2c(Oc3ccc(C(=O)Nc4ccccc4)cc3)c(Cl)cnc2[nH]1 [compound 28c, 4-((6-Chloro-2-(1,3-dimethyl-1H-pyrazol-4-yl)-3H-imidazo[4,5-b]pyridin-7-yl)oxy)-N-phenylbenzamide]
remaining activity at 1 µM ([1]; 110-kinase panel): 110% | remaining activity at 1 µM ([2]; 110-kinase panel): 86% | remaining activity at 1 µM ([3]; 110-kinase panel): 111% | remaining activity at 1 µM ([4]; 110-kinase panel): 108% | remaining activity at 1 µM ([5]; 110-kinase panel): 105% | remaining activity at 1 µM ([6]; 110-kinase panel): 93% | remaining activity at 1 µM ([7]; 110-kinase panel): 95% | remaining activity at 1 µM ([8]; 110-kinase panel): 98% | remaining activity at 1 µM ([9]; 110-kinase panel): 95% | remaining activity at 1 µM ([10]; 110-kinase panel): 63% | remaining activity at 1 µM ([11]; 110-kinase panel): 92% | remaining activity at 1 µM ([12]; 110-kinase panel): 110% | remaining activity at 1 µM ([13]; 110-kinase panel): 83% | remaining activity at 1 µM ([14]; 110-kinase panel): 77% | remaining activity at 1 µM ([15]; 110-kinase panel): 46% | remaining activity at 1 µM ([16]; 110-kinase panel): 89% | remaining activity at 1 µM ([17]; 110-kinase panel): 129% | remaining activity at 1 µM ([18]; 110-kinase panel): 82% | remaining activity at 1 µM ([19]; 110-kinase panel): 87% | remaining activity at 1 µM ([20]; 110-kinase panel): 99% | remaining activity at 1 µM ([21]; 110-kinase panel): 101% | remaining activity at 1 µM ([22]; 110-kinase panel): 105% | remaining activity at 1 µM ([23]; 110-kinase panel): 110% | remaining activity at 1 µM ([24]; 110-kinase panel): 109% | remaining activity at 1 µM ([25]; 110-kinase panel): 107% | remaining activity at 1 µM ([26]; 110-kinase panel): 81% | remaining activity at 1 µM ([27]; 110-kinase panel): 98% | remaining activity at 1 µM ([28]; 110-kinase panel): 80% | remaining activity at 1 µM ([29]; 110-kinase panel): 88% | remaining activity at 1 µM ([30]; 110-kinase panel): 81% | remaining activity at 1 µM ([31]; 110-kinase panel): 99% | remaining activity at 1 µM ([32]; 110-kinase panel): 89% | remaining activity at 1 µM ([33]; 110-kinase panel): 117% | remaining activity at 1 µM ([34]; 110-kinase panel): 91% | remaining activity at 1 µM ([35]; 110-kinase panel): 80% | remaining activity at 1 µM ([36]; 110-kinase panel): 31% | remaining activity at 1 µM ([37]; 110-kinase panel): 86% | remaining activity at 1 µM ([38]; 110-kinase panel): 102% | remaining activity at 1 µM ([39]; 110-kinase panel): 100% | remaining activity at 1 µM ([40]; 110-kinase panel): 17% | remaining activity at 1 µM ([41]; 110-kinase panel): 91% | remaining activity at 1 µM ([42]; 110-kinase panel): 25%

Cc1nn(C)cc1-c1nc2c(Oc3ccc(C(=O)NC4CCC4)cc3)c(Cl)cnc2[nH]1 [compound 40f, 4-((6-Chloro-2-(1,3-dimethyl-1H-pyrazol-4-yl)-3H-imidazo[4,5-b]pyridin-7-yl)oxy)-N-cyclobutylbenzamide]
remaining activity at 1 µM [1, 43]: 101% | remaining activity at 1 µM [2, 43]: 86% | remaining activity at 1 µM [3, 43]: 85% | remaining activity at 1 µM [4, 43]: 93% | remaining activity at 1 µM [5, 43]: 104% | remaining activity at 1 µM [6, 43]: 100% | remaining activity at 1 µM [7, 43]: 92% | remaining activity at 1 µM [8, 43]: 78% | remaining activity at 1 µM [9, 43]: 89% | remaining activity at 1 µM [10, 43]: 75% | remaining activity at 1 µM [11, 43]: 100% | remaining activity at 1 µM [12, 43]: 95% | remaining activity at 1 µM [13, 43]: 107% | remaining activity at 1 µM [14, 43]: 94% | remaining activity at 1 µM [15, 43]: 31% | remaining activity at 1 µM [16, 43]: 94% | remaining activity at 1 µM [17, 43]: 90% | remaining activity at 1 µM [18, 43]: 89% | remaining activity at 1 µM [19, 43]: 86% | remaining activity at 1 µM [20, 43]: 87% | remaining activity at 1 µM [21, 43]: 90% | remaining activity at 1 µM [22, 43]: 96% | remaining activity at 1 µM [23, 43]: 96% | remaining activity at 1 µM [24, 43]: 113% | remaining activity at 1 µM [25, 43]: 104% | remaining activity at 1 µM [26, 43]: 92% | remaining activity at 1 µM [27, 43]: 107% | remaining activity at 1 µM [28, 43]: 73% | remaining activity at 1 µM [29, 43]: 90% | remaining activity at 1 µM [30, 43]: 81% | remaining activity at 1 µM [31, 43]: 85% | remaining activity at 1 µM [32, 43]: 95% | remaining activity at 1 µM [33, 43]: 84% | remaining activity at 1 µM [34, 43]: 87% | remaining activity at 1 µM [35, 43]: 86% | remaining activity at 1 µM [36, 43]: 59% | remaining activity at 1 µM [37, 43]: 93% | remaining activity at 1 µM [38, 43]: 74% | remaining activity at 1 µM [39, 43]: 58% | remaining activity at 1 µM [40, 43]: 7% | remaining activity at 1 µM [41, 43]: 107% | remaining activity at 1 µM [42, 43]: 66%
